Laboratory results from patent US20150307554A1, “NTS-POLYPLEX NANOPARTICLES SYSTEM FOR GENE THERAPY OF CANCER” (priority 2011, published 2015).

Experiments:
MCF7 cells = assay: Internalization of NTS-polyplex via NTSR1 endocytosis with blocking assays, MCF7; format: cell-based, human; conditions: NTS 1 μM, SR48692 500 nM, sucrose 0.45 M
Procedure: (§1) The cytoplasm was stained with calcein AM (green). Cells were analyzed by confocal multi spectral imaging system TCS-SPE (Leica Mycrosystems, Wetzlar, Germany). The fluorescence was detected under the following conditions Ex/Em: 405/430 nm for the blue channel with UV light; 488/512-573 nm for the green channel with an argon laser; and 563/563-544 for the red channel with a Helium-Neon laser. We obtained 10 to 20 consecutive optical sections of 1 μm apart in the z series.

MDA-MB-231 cells = assay: Internalization of NTS-polyplex via NTSR1 endocytosis with blocking assays, MDA-MB-231; format: cell-based, human; conditions: NTS 1 μM, SR48692 500 nM, sucrose 0.45 M
Procedure: as §1

## COc1cccc(OC)c1-c1cc(C(=O)NC2(C(=O)O)C3CC4CC(C3)CC2C4)nn1-c1ccnc2cc(Cl)ccc12 (stereo not shown) [SR48692]
MCF7 cells
  blocking of NTS-polyplex internalization: prevented the entrance of NTS-polyplex
MDA-MB-231 cells
  blocking of NTS-polyplex internalization: prevented the entrance of NTS-polyplex

## OC[C@H]1O[C@@](CO)(O[C@H]2O[C@H](CO)[C@@H](O)[C@H](O)[C@H]2O)[C@@H](O)[C@@H]1O [sucrose]
MCF7 cells
  blocking of NTS-polyplex internalization: blocked
MDA-MB-231 cells
  blocking of NTS-polyplex internalization: blocked
